# Tests used:
# Calu-1 cells = assay: Anti-proliferation (viability) of NSCLC Calu-1 cells, 3 days (Table 7, FIG. 2B); assay type: cell-based; details: Homo sapiens, 72 h; Calu-1 cells, 3 days, 10-point serial dilution; read-out: GI IC50 in Calu-1
# Outline: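 Viability after a 10-point dilution series of heterobifunctional compounds, with exposure of 6 days for ER+ breast T47D cells and 3 days for NSCLC Calu-1 cells.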
# MCF7 cells = assay: Anti-proliferation (viability) of MCF7 cells (Table 7, FIG. 2B); assay type: cell-based; details: Homo sapiens, MCF7, MCF7 cells, 3-6 days, 10-point serial dilution; read-out: GI IC50 in MCF-7
Compound,IC50 (Calu-1 cells),IC50 (MCF7 cells)
"[2H]C([2H])([2H])Nc1ccc(C(=O)Nc2cccc(C)n2)c(NC2CCN(C(=O)CN3CCN(c4ccc(Nc5ncc6c(C)c(C(C)=O)c(=O)n(C7CCCC7)c6n5)nc4)CC3)CC2)n1 [CPD-270, 2-((1-(2-(4-(6-((6-acetyl-8-cyclopentyl-5-methyl-7-oxo-7,8-dihydropyrido[2,3-d]pyrimidin-2-yl)amino)pyridin-3-yl)piperazin-1-yl)acetyl)piperidin-4-yl)amino)-6-((methyl-d3)amino)-N-(6-methylpyridin-2-yl)nicotinamide]",≥ 0.05 µM,> 0.1 µM
"CNc1ccc(C(=O)Nc2ccc(N(C)C)nn2)c(NC2CCC(CNC(=O)CN3CCN(c4ccc(Nc5ncc6c(C)c(C(C)=O)c(=O)n(C7CCCC7)c6n5)nc4)CC3)C2)n1 (stereo not drawn) [CPD-271, 2-((3-((2-(4-(6-((6-acetyl-8-cyclopentyl-5-methyl-7-oxo-7,8-dihydropyrido[2,3-d]pyrimidin-2-yl)amino)pyridin-3-yl)piperazin-1-yl)acetamido)methyl)cyclopentyl)amino)-N-(6-(dimethylamino)pyridazin-3-yl)-6-(methylamino)nicotinamide]",≥ 0.05 µM,> 0.1 µM
"[2H]C([2H])([2H])Nc1ccc(C(=O)Nc2cn(C)c(C3CC3)n2)c(NC2CCN(C(=O)CCN3CCN(c4ccc(Nc5ncc6c(C)c(C(C)=O)c(=O)n(C7CCCC7)c6n5)nc4)CC3)C2)n1 (stereo not drawn) [CPD-273, 2-((1-(3-(4-(6-((6-acetyl-8-cyclopentyl-5-methyl-7-oxo-7,8-dihydropyrido[2,3-d]pyrimidin-2-yl)amino)pyridin-3-yl)piperazin-1-yl)propanoyl)pyrrolidin-3-yl)amino)-N-(2-cyclopropyl-1-methyl-1H-imidazol-4-yl)-6-((methyl-d3)amino)nicotinamide]",≥ 0.05 µM,> 0.1 µM
"CC(=O)c1c(C)c2cnc(Nc3ccc(N4CCN(CC(=O)N[C@H]5CC[C@H](CNc6nc(NC(C)C)ccc6C(=O)Nc6cn(C)c(C7CC7)n6)CC5)CC4)cn3)nc2n(C2CCCC2)c1=O [CPD-275, 2-(((trans-4-(2-(4-(6-((6-acetyl-8-cyclopentyl-5-methyl-7-oxo-7,8-dihydropyrido[2,3-d]pyrimidin-2-yl)amino)pyridin-3-yl)piperazin-1-yl)acetamido)cyclohexyl)methyl)amino)-N-(2-cyclopropyl-1-methyl-1H-imidazol-4-yl)-6-(isopropylamino)nicotinamide]",≥ 0.05 µM,> 0.1 µM
"[2H]C([2H])([2H])Nc1ccc(C(=O)Nc2cn(C)c(C3CC3)n2)c(NC[C@H]2CC[C@H](NC(=O)CN3CCN(c4ccc(Nc5ncc6c(C)c(C(C)=O)c(=O)n(C7CCCC7)c6n5)nc4)CC3)CC2)n1 [CPD-276, 2-(((trans-4-(2-(4-(6-((6-acetyl-8-cyclopentyl-5-methyl-7-oxo-7,8-dihydropyrido[2,3-d]pyrimidin-2-yl)amino)pyridin-3-yl)piperazin-1-yl)acetamido)cyclohexyl)methyl)amino)-N-(2-cyclopropyl-1-methyl-1H-imidazol-4-yl)-6-((methyl-d3)amino)nicotinamide]",≥ 0.05 µM,> 0.1 µM
"[2H]C([2H])([2H])Nc1ccc(C(=O)Nc2cn(C)c(C3CC3)n2)c(NC2CC(CNC(=O)CN3CCN(c4ccc(Nc5ncc6c(C)c(C(C)=O)c(=O)n(C7CCCC7)c6n5)nc4)CC3)C2)n1 (stereo not drawn) [CPD-278, 2-((3-((2-(4-(6-((6-acetyl-8-cyclopentyl-5-methyl-7-oxo-7,8-dihydropyrido[2,3-d]pyrimidin-2-yl)amino)pyridin-3-yl)piperazin-1-yl)acetamido)methyl)cyclobutyl)amino)-N-(2-cyclopropyl-1-methyl-1H-imidazol-4-yl)-6-((methyl-d3)amino)nicotinamide]",0.01 to 0.05 µM,> 0.1 µM
"CC(=O)c1c(C)c2cnc(Nc3ccc(N4CCN(CC(=O)N5CCC(Nc6nc(NC(C)C)ccc6C(=O)Nc6cn(C)c(C7CC7)n6)CC5)CC4)cn3)nc2n(C2CCCC2)c1=O [CPD-279, 2-((1-(2-(4-(6-((6-acetyl-8-cyclopentyl-5-methyl-7-oxo-7,8-dihydropyrido[2,3-d]pyrimidin-2-yl)amino)pyridin-3-yl)piperazin-1-yl)acetyl)piperidin-4-yl)amino)-N-(2-cyclopropyl-1-methyl-1H-imidazol-4-yl)-6-(isopropylamino)nicotinamide]",0.01 to 0.05 µM,> 0.1 µM
"CNc1ccc(C(=O)Nc2cc(C)on2)c(NC2CC(CNC(=O)CN3CCN(c4ccc(Nc5ncc6c(C)c(C(C)=O)c(=O)n(C7CCCC7)c6n5)nc4)CC3)C2)n1 (stereo not drawn) [CPD-281, 2-((3-((2-(4-(6-((6-acetyl-8-cyclopentyl-5-methyl-7-oxo-7,8-dihydropyrido[2,3-d]pyrimidin-2-yl)amino)pyridin-3-yl)piperazin-1-yl)acetamido)methyl)cyclobutyl)amino)-6-(methylamino)-N-(5-methylisoxazol-3-yl)nicotinamide]",0.01 to 0.05 µM,> 0.1 µM

# Further lines, results first:
IC50 (Calu-1 cells),IC50 (MCF7 cells),Compound
≤ 0.01 µM,< 0.05 µM,"CC(=O)c1c(C)c2cnc(Nc3ccc(N4CCN(CC(=O)NC5CC6(C5)CC(Nc5nc(NC(C)C)ccc5C(=O)Nc5ccc(N(C)C)nn5)C6)CC4)cn3)nc2n(C2CCCC2)c1=O (stereo not drawn) [CPD-272, 2-((6-(2-(4-(6-((6-acetyl-8-cyclopentyl-5-methyl-7-oxo-7,8-dihydropyrido[2,3-d]pyrimidin-2-yl)amino)pyridin-3-yl)piperazin-1-yl)acetamido)spiro[3.3]heptan-2-yl)amino)-N-(6-(dimethylamino)pyridazin-3-yl)-6-(isopropylamino)nicotinamide]"
0.01 to 0.05 µM,> 0.1 µM,"CC(=O)c1c(C)c2cnc(Nc3ccc(N4CCN(CCC(=O)N5CCC(Nc6nc(NC(C)C)ccc6C(=O)Nc6cn(C)c(C7CC7)n6)C5)CC4)cn3)nc2n(C2CCCC2)c1=O (stereo not drawn) [CPD-274, 2-((1-(3-(4-(6-((6-acetyl-8-cyclopentyl-5-methyl-7-oxo-7,8-dihydropyrido[2,3-d]pyrimidin-2-yl)amino)pyridin-3-yl)piperazin-1-yl)propanoyl)pyrrolidin-3-yl)amino)-N-(2-cyclopropyl-1-methyl-1H-imidazol-4-yl)-6-(isopropylamino)nicotinamide]"
≤ 0.01 µM,> 0.1 µM,"CC(=O)c1c(C)c2cnc(Nc3ccc(N4CCN(CC(=O)NCC5CC(Nc6nc(NC(C)C)ccc6C(=O)Nc6cn(C)c(C7CC7)n6)C5)CC4)cn3)nc2n(C2CCCC2)c1=O (stereo not drawn) [CPD-277, 2-((3-((2-(4-(6-((6-acetyl-8-cyclopentyl-5-methyl-7-oxo-7,8-dihydropyrido[2,3-d]pyrimidin-2-yl)amino)pyridin-3-yl)piperazin-1-yl)acetamido)methyl)cyclobutyl)amino)-N-(2-cyclopropyl-1-methyl-1H-imidazol-4-yl)-6-(isopropylamino)nicotinamide]"
≤ 0.01 µM,0.05 to 0.1 µM,"CC(=O)c1c(C)c2cnc(Nc3ccc(N4CCN(CC(=O)NC5CC(Nc6nc(NC(C)C)ccc6C(=O)Nc6ccc(N(C)C)nn6)C5)CC4)cn3)nc2n(C2CCCC2)c1=O (stereo not drawn) [CPD-280, 2-((3-(2-(4-(6-((6-acetyl-8-cyclopentyl-5-methyl-7-oxo-7,8-dihydropyrido[2,3-d]pyrimidin-2-yl)amino)pyridin-3-yl)piperazin-1-yl)acetamido)cyclobutyl)amino)-N-(6-(dimethylamino)pyridazin-3-yl)-6-(isopropylamino)nicotinamide]"

# Reference: US20260297081A1, “COMPOUNDS AND METHODS OF TREATING CANCERS” (Cullgen Inc., priority 2023, published 2026)
